Laboratory results: patent publication US11214594B2, “Antimicrobial peptide having synergistic antibacterial effect with antibiotics on multidrug resistant bacteria, and use thereof” (priority 2016, dated 2022)
Where a SMILES comes first, the peptide text is derived from it.

Tests used:
S. epidermidis = test: microbe, parasite or virus in culture; type: cell-based, Staphylococcus epidermidis
Summary of the method: (§1)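 Each strain is brought to 2×10^6 CFU in nutrient-sufficient Mueller-Hinton medium and dispensed into wells. Peptide solutions, stepwise diluted 2:1 in the same medium, are then added. The minimal concentration preventing growth gives the MIC.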

MDREC 1238 = type: cell-based, Escherichia coli
Summary of the method: as §1

P. aeruginosa = test: microbe, parasite or virus in culture; type: cell-based, Pseudomonas aeruginosa
Summary of the method: as §1

MDRAB 12035 [1] = test: MIC of antibiotic during combined treatment with antimicrobial peptide; type: cell-based, Acinetobacter baumannii
Summary of the method: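 Broth microdilution in MH medium; strains were diluted to 2×10^6 CFU per ml before plating. Peptide was serially diluted stepwise at 2:1 starting from its MIC, and MH-diluted antibiotic was then added to determine MIC. The reversed arrangement was also tested.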

MDRPA 2003 = type: cell-based, Pseudomonas aeruginosa
Summary of the method: as §1

MDRPA 2002 = type: cell-based, Pseudomonas aeruginosa
Summary of the method: as §1

MRSA 3126 = type: cell-based, Staphylococcus aureus; settings: 3126
Summary of the method: as §1

MRSA 3114 = type: cell-based, Staphylococcus aureus; settings: 3114
Summary of the method: as §1

[2] = test system: multi-drug resistant bacteria; test: MIC, summary statements for multi-drug resistant bacteria; type: cell-based
Description: For the antibacterial activity, a minimal inhibitory concentration (MIC) of a peptide in which fungus bodies were not split in an MH medium with sufficient nutrients was measured.
Specifically, the strains described in the following [Table 2] were purchased and diluted with an MH medium such that the number of bacteria was 2×10^6 colony-forming units (CFUs), 100 μl of each of the diluted strains was aliquoted into a 96-well microtiter plate, and then 100 μl of a peptide solution diluted with the MH medium (solution diluted stepwise at 2: 1) was added to each well.

S. typhimurium = test: microbe, parasite or virus in culture; type: cell-based, Salmonella typhimurium
Summary of the method: as §1

MDRST 8009 = type: cell-based, Salmonella typhimurium; settings: agent alone
Summary of the method: as §1

A. baumannii = test: microbe, parasite or virus in culture; type: cell-based, Acinetobacter baumannii
Summary of the method: as §1

MDRAB 12035 [3] = test: microbe, parasite or virus in culture; type: cell-based, Acinetobacter baumannii
Summary of the method: as §1

[4] = peptide treatment concentration 1 μg/ml
[5] = peptide treatment concentration 2 μg/ml
[6] = peptide treatment concentration 4 μg/ml
[7] = peptide treatment concentration 6 μg/ml
[8] = peptide treatment concentration 8 μg/ml
[9] = peptide treatment concentration 16 μg/ml
[10] = peptide treatment concentration 32 μg/ml
[11] = peptide treatment concentration 64 μg/ml

CC[C@H](C)[C@H](NC(=O)[C@H](CCCCN)NC(=O)[C@H](Cc1c[nH]c2ccccc12)NC(=O)[C@@H](N)CCCNC(=N)N)C(=O)N[C@@H](Cc1ccccc1)C(=O)N[C@@H](CCCCN)C(=O)N[C@@H](CCCCN)C(=O)N[C@H](C(=O)N1CCC[C@H]1C(=O)N[C@@H](CCCCN)C(=O)N[C@@H](CC(C)C)C(=O)N[C@@H](CC(C)C)C(=O)N[C@@H](Cc1c[nH]cn1)C(=O)N[C@@H](CCC(=O)O)C(=O)N[C@@H](Cc1ccccc1)C(=O)N[C@@H](CCCCN)C(=O)N[C@@H](CCCCN)C(=O)N[C@@H](Cc1ccccc1)C(N)=O)[C@@H](C)CC [PapMA-12, RWK IFK KIP KLL HEF KKF-NH2] (H-RWKIFKKIPKLLHEFKKF-NH2; N-terminus assumed)
>128 µg/mL: Minimal inhibitory concentration MIC (S. epidermidis) | Minimal inhibitory concentration MIC (MRSA 3126) | Minimal inhibitory concentration MIC (MRSA 3114)
128 µg/mL: Linezolid MIC during combined treatment with peptide (MDRAB 12035 [1]; [4]) | Vancomycin MIC during combined treatment with peptide (MDRAB 12035 [1]; [4])
16 µg/mL: Minimal inhibitory concentration MIC (MDREC 1238) | Erythromycin MIC during combined treatment with peptide (MDRAB 12035 [1]; [4]) | Linezolid MIC during combined treatment with peptide (MDRAB 12035 [1]; [6]) | Vancomycin MIC during combined treatment with peptide (MDRAB 12035 [1]; [6]) | Minimal inhibitory concentration MIC (S. typhimurium)
64 µg/mL: Minimal inhibitory concentration MIC (P. aeruginosa) | Linezolid MIC during combined treatment with peptide (MDRAB 12035 [1]; [5]) | Vancomycin MIC during combined treatment with peptide (MDRAB 12035 [1]; [5]) | Minimal inhibitory concentration MIC (MDRPA 2003) | Minimal inhibitory concentration MIC (MDRPA 2002)
8 µg/mL: Erythromycin MIC during combined treatment with peptide (MDRAB 12035 [1]; [5]) | Linezolid MIC during combined treatment with peptide (MDRAB 12035 [1]; [7]) | Minimal inhibitory concentration MIC (A. baumannii) | Minimal inhibitory concentration MIC (MDRAB 12035 [3]) | Peptide MIC, peptide alone (MDRAB 12035 [3])
32 µg/mL: Minimal inhibitory concentration MIC (MDRST 8009)
0 µg/mL: Erythromycin MIC during combined treatment with peptide (MDRAB 12035 [1]; [8]) | Linezolid MIC during combined treatment with peptide (MDRAB 12035 [1]; [8]) | Vancomycin MIC during combined treatment with peptide (MDRAB 12035 [1]; [8]) | Erythromycin MIC during combined treatment with peptide (MDRAB 12035 [1]; [9]) | Linezolid MIC during combined treatment with peptide (MDRAB 12035 [1]; [9]) | Vancomycin MIC during combined treatment with peptide (MDRAB 12035 [1]; [9]) | Erythromycin MIC during combined treatment with peptide (MDRAB 12035 [1]; [10]) | Linezolid MIC during combined treatment with peptide (MDRAB 12035 [1]; [10]) | Vancomycin MIC during combined treatment with peptide (MDRAB 12035 [1]; [10]) | Erythromycin MIC during combined treatment with peptide (MDRAB 12035 [1]; [11]) | Linezolid MIC during combined treatment with peptide (MDRAB 12035 [1]; [11]) | Vancomycin MIC during combined treatment with peptide (MDRAB 12035 [1]; [11])
at least twice as high: Antibacterial activity relative to PapMA-1 (A. baumannii; A. baumannii and S. typhimurium)
2 µg/mL: Erythromycin MIC during combined treatment with peptide (MDRAB 12035 [1]; [6])
1 µg/mL: Erythromycin MIC during combined treatment with peptide (MDRAB 12035 [1]; [7])
4 µg/mL: Vancomycin MIC during combined treatment with peptide (MDRAB 12035 [1]; [7])
twice to four times higher: Antibacterial activity relative to PapMA-1 [2]
